The text below walks through data of patent US20250179027A1, “CYCLOALKYL OR HETEROCYCLYL SUBSTITUTED HETEROARYL COMPOUND, AND COMPOSITION AND USE THEREOF” (Shenzhen TargetRx, Inc., priority 2022, published 2025).

Test [1] addresses T1, BTK C481S kinase (Homo sapiens, UniProt Q06187, C481S).
T1 construct: purchased Carna 08-547
Put plainly: HTRF kinase activity inhibition assay, BTK C481S. Type of test: biochemical. The conditions noted are these: HTRF TK kit. The text has this: (§1) In this assay, the HTRF TK Kit (Catalog No. 62TKOPEC) provided by Cisbio was used to detect the inhibitory activity of compounds on BTK kinase and BTK C481S kinase and the selectivity of compounds relative to EGFR, ITK and TEC kinases.
(§2) Reagents and consumables: BTK kinase (Invitrogen, Catalog No. PV3587), BTK C481S (Carna, Product No. 08-547), ITK (Carna, Product No. 08-181), EGFR (Carna, Product No. 08-115), TEC (Carna, Product No. 08-182), HTRF-TK kit (Cisbio, Product No. 62TKOPEC), MgCl2 (Sigma, Product No. M1028), MnCl2 (Sigma, Product No. M1787), DTT (Sigma, Product No. D0632), ATP (Sigma, Product No. A7699-1 g), DMSO (Sigma, Product No. D2650), 384-well plate (PE, Product No. 6008280).
(§3) The entire operation steps were carried out on ice, and the total reaction volume was 10 μL. The compound (4 μL), substrate and ATP (4 μL), kinase (2 μL) were added in sequence to a 384-well plate, and shaked for 30 seconds. After an appropriate time at room temperature, the detection reagent was added. After 1 hour at room temperature, the plate was detected with a microplate reader. The specific steps were as follows: • a) 1× kinase buffer solution required for kinase detection was calculated according to the amount of the detection compound, and prepared as needed; • b) compounds with 2.5×working concentration were prepared, the 100 times gradient concentration solution of compounds was diluted by 4 μL to the desired concentration, mixed well, and added to each well at 4 μL per well; • c) 5×working concentration of substrate and ATP were prepared, mixed in a ratio of 1:1 before adding to a 384-well plate, and added to each well at 4 μL per well; • d) 5×working concentration of kinase was prepared, and 2 μL was added to each well; • e) the plate was shaked on a microplate oscillator for 30 seconds, sealed with a sealing membrane, and reacted at room temperature for an appropriate time; • f) 4×working concentrations of streptavidin XL-665 and TK antibody-cryptate compound were prepared, mixed in a ratio of 1:1 before adding to a 384-well plate, and added to each well at 10 μL per well; • g) the plate was read after reacting at room temperature for 1 hour; • h) the wells with only substrate, ATP and 1% DMSO added but no kinase were blank control wells, and the wells with only substrate, ATP, 1% DMSO and kinase were positive control wells.
(§4) Readings: The values of 620 nm (cryptate) and 665 nm (XL665) were read with a BioTek Synerg Neo2 microplate reader, the ratio of 665/620 per well was calculated, and the data were exported. Data analysis: IC50 was calculated using GraphPad Prism 7.0 software. The following nonlinear fitting formula was used to obtain the IC50 (half inhibitory concentration) of compounds:
(§5) [formula] • X: Compound concentration log value • Y: Inhibition rate (% inhibition)
(§6) The kinase inhibition rate (% inhibition rate) was calculated as: […]
On the technique in general: TR-FRET usually uses a lanthanide donor and a delayed reading to cut background.

For test [2], the target named is T2, phosphorylated BTK Y223 in NIH/3T3 BTK C481S cells (Homo sapiens, UniProt Q06187, C481S).
T2 construct: expressed in transfected cells; host or cells: NIH/3T3 (mouse fibroblasts) engineered to express BTK C481S
Put plainly: Phosphor-BTK(Y223) assay, NIH/3T3 BTK C481S cells. The test is classed as cell-based. The note with it: phosphorylated BTK Y223, NIH/3T3 BTK C481S cells; read-out: NIH/3T3 BTK-C481S pBTK IC50. How it is done: The purpose of this assay is to simply, quickly and directly detect the endogenous level of BTK in cells. The specific assay steps are as follows: Day 1: NIH/3T3 BTK WT cells (7.5 k/well) and NIH/3T3 BTK C481S cells (10 k/well) were plated in 96-well plates, respectively, and cultured overnight at 37° C. and 5% CO2.
• 1. A 3-fold final concentration gradient dilution of the compound was prepared, and 50 μL was added to 100 μL of cell culture; 0.5% DMSO was used as a positive control for cell growth. • 2. The plate was incubated at 37° C., 5% CO2 for 0.5 h. • 3. Na3VO4 with a final concentration of 1 mM was added, and incubated at 37° C. and 5% CO2 for 2 hours. • 4. During the incubation, the following reagents were prepared: 1× added lysis buffer: 3 vol ddH2O+1 vol 4× lysis buffer+100× blocking reagent. p-BTK (Y223) cryptate-antibody and p-BTK (Y223) d2-antibody working solutions: 1 volume of each cryopreserved antibody (stored at −20° C.) was added to 19 times volumes of assay buffer (stored at 4° C.). • 5. After the incubation, the medium was removed and 50 μL of 1× added lysis buffer was added; The mixture was centrifuged at 500 rpm for 30 min at room temperature. • 6. The lysate was mixed well and 16 μL was transferred to a 384-well plate; 1× added lysis buffer was used as a blank control. • 7. 4 μL of pre-mixed working solutions of the two antibodies (cryptate Ab:d2 Ab=1:1) were added and the plate was sealed. • 8. The plate was incubated overnight at room temperature.
Biotek cytation3.0 microplate reader was used to read the plate at 665 nm and 620 nm, and the ratio of 665/620 nm per well was calculated.
IC50 was calculated using GraphPad Prism 7.0 software.
The following nonlinear fitting formula was used to obtain the phosphorylated BTK Y223 IC50 (half phosphorylation inhibitory concentration) of the compounds:
as §5
The formula for calculating cell phosphorylation inhibition rate (% inhibition rate) was: […]

Test [3] deals with T3, phosphorylated BTK Y223 in NIH/3T3 BTK WT cells (Homo sapiens, UniProt Q06187).
T3 construct: expressed in transfected cells; host or cells: NIH/3T3 (mouse fibroblasts) engineered to express BTK WT
Put plainly: Phosphor-BTK(Y223) assay, NIH/3T3 BTK WT cells. The conditions noted are these: phosphorylated BTK Y223, NIH/3T3 BTK WT cells; read-out: NIH/3T3 BTK-WT pBTK IC50. The test is classed as cell-based. The gist of the method:
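NIH/3T3 cells expressing BTK WT (7.5k/well) or C481S (10k/well) were treated with compound for 0.5 h at 37 °C, then 1 mM Na3VO4 was added for 2 h. Lysates were probed overnight at room temperature with HTRF p-BTK(Y223) cryptate/d2 antibodies (665/620 nm ratio). IC50 came from nonlinear fit of % inhibition against log concentration.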

In test [4] the target is T4, BTK kinase (Homo sapiens, UniProt Q06187).
T4 construct: purchased Invitrogen PV3587
Put plainly: HTRF kinase activity inhibition assay, BTK. Type of test: biochemical. The note with it: HTRF TK kit.
Source text: as §1, §2, §3, §4, §5, §6

T4 sequence (Q06187 whole entry): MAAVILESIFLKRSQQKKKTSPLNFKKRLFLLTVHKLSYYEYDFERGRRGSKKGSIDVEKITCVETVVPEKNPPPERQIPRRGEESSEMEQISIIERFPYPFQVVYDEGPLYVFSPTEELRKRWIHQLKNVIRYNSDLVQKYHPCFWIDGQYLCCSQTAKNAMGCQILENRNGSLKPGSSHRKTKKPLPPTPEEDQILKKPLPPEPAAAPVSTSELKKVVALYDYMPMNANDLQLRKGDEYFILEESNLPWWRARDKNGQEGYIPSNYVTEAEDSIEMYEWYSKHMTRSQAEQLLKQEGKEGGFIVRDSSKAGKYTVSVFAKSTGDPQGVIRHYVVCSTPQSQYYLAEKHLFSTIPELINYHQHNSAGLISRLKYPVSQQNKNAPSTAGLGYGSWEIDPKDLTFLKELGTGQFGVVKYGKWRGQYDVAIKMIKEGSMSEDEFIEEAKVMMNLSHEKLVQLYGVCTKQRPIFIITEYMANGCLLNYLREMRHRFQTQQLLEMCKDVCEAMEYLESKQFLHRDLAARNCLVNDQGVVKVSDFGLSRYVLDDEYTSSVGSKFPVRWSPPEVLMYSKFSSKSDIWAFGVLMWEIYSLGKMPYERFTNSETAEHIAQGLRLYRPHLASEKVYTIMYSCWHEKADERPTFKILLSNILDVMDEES
T3 sequence (Q06187 whole entry): as above
T2 sequence (Q06187 whole entry C481S): as the sequence (Q06187 whole entry) above, with C481S counted along it
T1 sequence (Q06187 whole entry C481S): as the sequence (Q06187 whole entry) above, with C481S counted along it

As to `COc1ccc(F)cc1C(=O)NCc1ccc(-c2nn(C3CCCC(O)C3)c3ncnc(N)c23)cc1` (single isomer, unassigned) [Example 6], the IC50 in test [1] was at most 10 nM; in test [2] it was at most 25 nM; in test [3], at most 25 nM; in test [4], at most 10 nM.
`COc1ccc(F)cc1C(=O)NCc1ccc(-c2cc(C3CCC(CO)OC3)n3ncnc(N)c23)cc1` (single isomer, unassigned) [Example 60, N-(4-(4-amino-7-(6-(hydroxymethyl)tetrahydro-2H-pyran-3-yl)pyrrolo[2,1-f][1,2,4]triazin-5-yl)benzyl)-5-fluoro-2-methoxybenzamide]: the IC50 was at most 10 nM in test [1], at most 25 nM in test [2], at most 25 nM in test [3] and at most 10 nM in test [4].
For the compound `COc1ccc(F)cc1C(=O)NCc1ccc(-c2nn([C@H]3CC[C@@H](CO)CC3)c3ncnc(N)c23)cc1` [Example 55, cis-N-(4-(4-amino-1-((1S,4S)-4-(hydroxymethyl)cyclohexyl)-1H-pyrazolo[3,4-d]pyrimidin-3-yl)benzyl)-5-fluoro-2-methoxybenzamide], the IC50 in test [1] is at most 10 nM; in test [2] it was at most 25 nM; in test [3], at most 25 nM; in test [4], at most 10 nM.
On to `COc1ccc(F)cc1C(=O)NCc1ccc(-c2nn([C@H]3CC[C@@H](O)CC3)c3ncnc(N)c23)cc1` [Example 30, N-(4-(4-amino-1-((1S,4S)-4-hydroxycyclohexyl)-1H-pyrazolo[3,4-d]pyrimidin-3-yl)benzyl)-5-fluoro-2-methoxybenzamide], for which the IC50 was at most 10 nM in test [1], at most 25 nM in test [2], at most 25 nM in test [3] and at most 10 nM in test [4].
For `COc1ccc(F)cc1C(=O)NCc1ccc(-c2nn(C3CCCC(O)C3)c3ncnc(N)c23)cc1` (single isomer, unassigned) [Example 5], the IC50 in test [1] is at most 10 nM; in test [2] it was at most 25 nM; in test [3], at most 25 nM; in test [4], 10 to 50 nM.
In the case of `COc1ccc(F)cc1C(=O)NCc1ccc(-c2nn(C3CCC(O)C3)c3ncnc(N)c23)cc1` (single isomer, unassigned) [Example 31, N-(4-(4-amino-1-(3-hydroxycyclopentanyl)-1H-pyrazolo[3,4-d]pyrimidin-3-yl)benzyl)-5-fluoro-2-methoxybenzamide], the IC50 is at most 10 nM in test [1], at most 25 nM in test [2], at most 25 nM in test [3] and at most 10 nM in test [4].
In the case of `COc1ccc(F)cc1C(=O)NCc1ccc(-c2nn(C3CCCC(O)C3)c3ncnc(N)c23)cc1` (single isomer, unassigned) [Example 7], the figures for the IC50 in test [1], in test [2] and in test [3] were at most 10 nM, 25 to 50 nM and at most 25 nM, respectively.
In the case of `COc1ccc(F)cc1C(=O)NCc1ccc(-c2nn(C3CCC(O)CC3)c3ncnc(N)c23)cc1` [Example 29, N-(4-(4-amino-1-((1R,4R)-4-hydroxycyclohexyl)-1H-pyrazolo[3,4-d]pyrimidin-3-yl)benzyl)-5-fluoro-2-methoxybenzamide], the IC50 is at most 10 nM in test [1], at most 25 nM in test [2], at most 25 nM in test [3] and at most 10 nM in test [4].
Turning to `COc1ccc(F)cc1C(=O)NCc1ccc(-c2nn([C@H]3CC[C@H](CO)CC3)c3ncnc(N)c23)cc1` [Example 56, trans-N-(4-(4-amino-1-((1R,4R)-4-(hydroxymethyl)cyclohexyl)-1H-pyrazolo[3,4-d]pyrimidin-3-yl)benzyl)-5-fluoro-2-methoxybenzamide], the IC50 in test [1] is at most 10 nM; in test [2], at most 25 nM; in test [3], at most 25 nM; in test [4], at most 10 nM.
Consider `COc1ccc(F)cc1C(=O)NCc1ccc(-c2cc(C3CCC(CO)OC3)n3ncnc(N)c23)cc1` (single isomer, unassigned) [Example 59, N-(4-(4-amino-7-(6-(hydroxymethyl)tetrahydro-2H-pyran-3-yl)pyrrolo[2,1-f][1,2,4]triazin-5-yl)benzyl)-5-fluoro-2-methoxybenzamide], for which the IC50 in test [1] is 10 to 50 nM; in test [2] it was 50 to 100 nM; in test [3], 25 to 50 nM; in test [4], 10 to 50 nM.
Consider `COc1ccc(F)cc1C(=O)NCc1ccc(-c2nn(C3CCCC(O)C3)c3ncnc(N)c23)cc1` (single isomer, unassigned) [Example 8], for which the IC50 in test [1] was 10 to 50 nM; in test [2] it was 50 to 100 nM; in test [3], at most 25 nM.
For `COc1ccc(F)cc1C(=O)NCc1ccc(-c2nn(C3CCCC(O)C3)c3ncnc(N)c23)cc1` (stereo not drawn) [Example 4], the IC50 in test [1] is at most 10 nM; in test [2] it was 25 to 50 nM; in test [3], at most 25 nM; in test [4], at most 10 nM.
On to `COc1ccc(F)cc1C(=O)NCc1ccc(-c2nn(C3CCC(CO)OC3)c3ncnc(N)c23)cc1` (single isomer, unassigned) [Example 18, N-(4-(4-amino-1-(6-(hydroxymethyl)tetrahydro-2H-pyran-3-yl)-1H-pyrazolo[3,4-d]pyrimidin-3-yl)benzyl)-5-fluoro-2-methoxybenzamide], for which the IC50 in test [1] is at most 10 nM; in test [2] it was at most 25 nM; in test [3], at most 25 nM; in test [4], at most 10 nM.
For the compound `COc1ccc(F)cc1C(=O)NCc1ccc(-c2nc(C3CCCC(O)C3)n3ccnc(N)c23)cc1` (single isomer, unassigned) [Example 22, N-(4-(8-amino-3-(3-hydroxycyclohexanyl)imidazo[1,5-a]pyrazin-1-yl)benzyl)-5-fluoro-2-methoxybenzamide], the IC50 was at most 10 nM in test [1], at most 25 nM in test [2], at most 25 nM in test [3] and at most 10 nM in test [4].
